The results in this text go back to ChEMBL document CHEMBL1133788, “Structure--activity relationships of side-chain modified didemnins” (Bioorg Med Chem Lett, 2001).

By LC50 is commonly meant the concentration lethal to half of the exposed cells or organisms. A higher LC50 goes with lower toxicity. As usually defined, the GI50 is the concentration at which growth is held to half of that of the control. A low value points to more potent growth inhibition. For orientation: TGI means the concentration at which net growth stops. A low value points to greater sensitivity of the cells.

What all share (assay type): functional
The nature of data set [1]: Lethal concentration for inhibitory activity evaluated in NCI-60 tumor cell screen. The conditions noted are these: human.
A short description of data set [2]: Growth inhibitory activity evaluated in NCI-60 tumor cell screen. Particulars: Homo sapiens.
A short description of data set [3]: Total Growth inhibitory activity evaluated in NCI-60 tumor cell screen. Particulars: Homo sapiens.

In data set [1], `CC[C@H](C)[C@H]1NC(=O)[C@@H](NC(=O)[C@@H](CC(C)C)N(C)C(=O)[C@H]2C=CCN2)[C@@H](C)OC(=O)[C@H](Cc2ccc(OC)cc2)N(C)C(=O)[C@@H]2CCCN2C(=O)[C@H](CC(C)C)NC(=O)[C@@H](C)C(=O)[C@H](C(C)C)OC(=O)C[C@@H]1O` gave an LC50 of 7000 nM. Moreover, the GI50 in data set [2] came to 3 nM. For the same compound, net growth in data set [3] stopped (TGI) at 39 nM.
`CC[C@H](C)[C@H]1NC(=O)[C@@H](NC(=O)[C@@H](CC(C)C)N(C)C(=O)CNC(=O)Cc2cc(=O)oc3cc(N(C)C)ccc23)[C@@H](C)OC(=O)[C@H](Cc2ccc(OC)cc2)N(C)C(=O)[C@@H]2CCCN2C(=O)[C@H](CC(C)C)NC(=O)[C@@H](C)C(=O)[C@H](C(C)C)OC(=O)C[C@@H]1O` had an LC50 in data set [1] of 7200 nM. Moreover, it took 11 nM to inhibit growth in data set [2] by half (GI50). In data set [3], this compound came in with a total growth inhibition concentration (TGI) of 20.5 nM.
For `CC[C@H](C)[C@H]1NC(=O)[C@@H](NC(=O)[C@@H](CC(C)C)N(C)C(=O)[C@@H]2C=CCN2C(=O)[C@@H](C)O)[C@@H](C)OC(=O)[C@H](Cc2ccc(OC)cc2)N(C)C(=O)[C@@H]2CCCN2C(=O)[C@H](CC(C)C)NC(=O)[C@@H](C)C(=O)[C@H](C(C)C)OC(=O)C[C@@H]1O` the same measures were 83 nM, 2.8 nM and 20 nM.
The compound `CC[C@H](C)[C@H]1NC(=O)[C@@H](NC(=O)[C@@H](CC(C)C)N(C)C(=O)C2CCCN2)[C@@H](C)OC(=O)[C@H](Cc2ccc(OC)cc2)N(C)C(=O)[C@@H]2CCCN2C(=O)[C@H](CC(C)C)NC(=O)[C@@H](C)C(=O)[C@H](C(C)C)OC(=O)C[C@@H]1O` (stereo not given in full) came in with an LC50 in data set [1] of 210 nM. The compound further gave a GI50 in data set [2] of 0.62 nM. In data set [3], this compound showed a concentration for total growth inhibition (TGI) of 12 nM.
Take `CC[C@H](C)[C@H]1NC(=O)[C@@H](NC(=O)[C@@H](CC(C)C)N(C)C[C@@H]2CCCN2C(=O)[C@@H](C)O)[C@@H](C)OC(=O)[C@H](Cc2ccc(OC)cc2)N(C)C(=O)[C@@H]2CCCN2C(=O)[C@H](CC(C)C)NC(=O)[C@@H](C)C(=O)[C@H](C(C)C)OC(=O)C[C@@H]1O`: the 50% lethal concentration (LC50) in data set [1] was found to be 3000 nM. The concentration for 50% growth inhibition (GI50) in data set [2] is 4 nM. The compound also gave a TGI in data set [3] of 76 nM.
